From ChEMBL document CHEMBL1142913, “Novel synthesis of [1]-benzothiepino[5,4-b]pyridine-3-carbonitriles and their anti-inflammatory properties” (Bioorg Med Chem, 2007)

Tests used:
[1] = test system: Rattus norvegicus; test: Antiinflammatory activity in Wistar Albino rat assessed as inhibition of carrageenan-induced paw oedema at 50 mg/kg, ip after 1 hr; format: functional; conditions: route intraperitoneal
[2] = test system: Rattus norvegicus; test: Antiinflammatory activity in Wistar Albino rat assessed as inhibition of carrageenan-induced paw oedema at 50 mg/kg, ip after 2 hrs; format: functional; conditions: route intraperitoneal
[3] = test system: Rattus norvegicus; test: Antiinflammatory activity in Wistar Albino rat assessed as inhibition of carrageenan-induced paw oedema at 50 mg/kg, ip after 3 hrs; format: functional; conditions: route intraperitoneal
[4] = test system: Rattus norvegicus; test: Antiinflammatory activity in Wistar Albino rat assessed as inhibition of carrageenan-induced paw oedema at 50 mg/kg, ip after 4 hrs; format: functional; conditions: route intraperitoneal
[5] = test system: Rattus norvegicus; test: Antiinflammatory activity against carrageenan-induced paw oedema in Wistar Albino rat assessed as mean swelling paw volume at 50 mg/kg, ip after 1 hr; format: functional; conditions: route intraperitoneal
[6] = test system: Rattus norvegicus; test: Antiinflammatory activity against carrageenan-induced paw oedema in Wistar Albino rat assessed as mean swelling paw volume at 50 mg/kg, ip after 2 hrs; format: functional; conditions: route intraperitoneal
[7] = test system: Rattus norvegicus; test: Antiinflammatory activity against carrageenan-induced paw oedema in Wistar Albino rat assessed as mean swelling paw volume at 50 mg/kg, ip after 3 hrs; format: functional; conditions: route intraperitoneal
[8] = test system: Rattus norvegicus; test: Antiinflammatory activity against carrageenan-induced paw oedema in Wistar Albino rat assessed as mean swelling paw volume at 50 mg/kg, ip after 4 hrs; format: functional; conditions: route intraperitoneal
[9] = test system: Mus musculus; test: Toxicity in intraperitoneally dosed Albino mouse after 24 hrs; format: organism-based; conditions: in vivo, ip
[10] = test system: Rattus norvegicus; test: Antiinflammatory activity in Wistar Albino rat assessed as inhibition of carrageenan-induced paw oedema at 5 mg/kg, ip after 1 hr; format: functional; conditions: route intraperitoneal
[11] = test system: Rattus norvegicus; test: Antiinflammatory activity in Wistar Albino rat assessed as inhibition of carrageenan-induced paw oedema at 5 mg/kg, ip after 2 hrs; format: functional; conditions: route intraperitoneal
[12] = test system: Rattus norvegicus; test: Antiinflammatory activity in Wistar Albino rat assessed as inhibition of carrageenan-induced paw oedema at 5 mg/kg, ip after 3 hrs; format: functional; conditions: route intraperitoneal
[13] = test system: Rattus norvegicus; test: Antiinflammatory activity in Wistar Albino rat assessed as inhibition of carrageenan-induced paw oedema at 5 mg/kg, ip after 4 hrs; format: functional; conditions: route intraperitoneal
[14] = test system: Rattus norvegicus; test: Antiinflammatory activity against carrageenan-induced paw oedema in Wistar Albino rat assessed as mean swelling paw volume at 5 mg/kg, ip after 1 hr; format: functional; conditions: route intraperitoneal
[15] = test system: Rattus norvegicus; test: Antiinflammatory activity against carrageenan-induced paw oedema in Wistar Albino rat assessed as mean swelling paw volume at 5 mg/kg, ip after 2 hrs; format: functional; conditions: route intraperitoneal
[16] = test system: Rattus norvegicus; test: Antiinflammatory activity against carrageenan-induced paw oedema in Wistar Albino rat assessed as mean swelling paw volume at 5 mg/kg, ip after 3 hrs; format: functional; conditions: route intraperitoneal
[17] = test system: Rattus norvegicus; test: Antiinflammatory activity against carrageenan-induced paw oedema in Wistar Albino rat assessed as mean swelling paw volume at 5 mg/kg, ip after 4 hrs; format: functional; conditions: route intraperitoneal

For `C1COCCN1.COc1ccc(-c2c(C#N)c(S)[nH]c(=S)c2C#N)cc1.O`, the inhibition in vivo at 50 mg/kg [1] was 30.6%, the inhibition in vivo at 50 mg/kg [2] was 55.5% and the inhibition in vivo at 50 mg/kg [3] was 67.8%. For the same molecule, the inhibition in vivo at 50 mg/kg [4] was 66.5%, the Activity [5] was 0.42 mL and the Activity [6] was 0.498 mL. The Activity [7] was 0.44 mL and the Activity [8] was 0.536 mL.
`COc1nc2c(c(-c3ccccc3)c1C#N)CCSc1ccccc1-2` gave an inhibition in vivo at 50 mg/kg [1] of 54%, an inhibition in vivo at 50 mg/kg [2] of 61% and an inhibition in vivo at 50 mg/kg [3] of 59.2%. It also gave an inhibition in vivo at 50 mg/kg [4] of 80.9%, an Activity [5] of 0.278 mL and an Activity [6] of 0.437 mL. It also gave an Activity [7] of 0.558 mL and an Activity [8] of 0.305 mL.
`COc1nc2c(c(-c3ccco3)c1C#N)CCSc1ccccc1-2` showed an inhibition in vivo at 50 mg/kg [1] of 79.5%, an inhibition in vivo at 50 mg/kg [2] of 51.1% and an inhibition in vivo at 50 mg/kg [3] of 58.2%. It also gave an inhibition in vivo at 50 mg/kg [4] of 68.3%, an Activity [5] of 0.124 mL and an Activity [6] of 0.548 mL. It also gave an Activity [7] of 0.572 mL and an Activity [8] of 0.508 mL.
Work on `COc1nc2c(c(-c3ccc(Cl)cc3)c1C#N)CCSc1ccccc1-2` yielded an inhibition in vivo at 50 mg/kg [1] of 63.1%, an inhibition in vivo at 50 mg/kg [2] of 74.7% and an inhibition in vivo at 50 mg/kg [3] of 79.8%. It also gave an inhibition in vivo at 50 mg/kg [4] of 75.3%, an Activity [5] of 0.223 mL and an Activity [6] of 0.283 mL. It also gave an Activity [7] of 0.277 mL and an Activity [8] of 0.396 mL.
With `CCOc1nc2c(c(-c3ccc(Cl)cc3)c1C#N)CCSc1ccccc1-2` the inhibition in vivo at 50 mg/kg [1] was 81.3%, the inhibition in vivo at 50 mg/kg [2] was 87.7% and the inhibition in vivo at 50 mg/kg [3] was 88.5%. For the same molecule, the inhibition in vivo at 50 mg/kg [4] was 86.8%, the Activity [9] was “Non-toxic” and the Activity [5] was 0.113 mL. For the same molecule, the Activity [6] was 0.138 mL, the Activity [7] was 0.158 mL and the Activity [8] was 0.212 mL.
For `COc1ccc(-c2c(C#N)c(OC)nc3c2CCSc2ccccc2-3)cc1`, the inhibition in vivo at 50 mg/kg [1] was 58.7%, the inhibition in vivo at 50 mg/kg [2] was 81.9% and the inhibition in vivo at 50 mg/kg [3] was 87%. The inhibition in vivo at 50 mg/kg [4] was 85.1%, the Activity [9] was “Non-toxic” and the Activity [5] was 0.25 mL. For the same molecule, the Activity [6] was 0.203 mL, the Activity [7] was 0.178 mL and the Activity [8] was 0.238 mL.
Molecule `N#Cc1c(-c2ccc(Br)cc2)c2c([nH]c1=S)-c1ccccc1SCC2` has an inhibition in vivo at 50 mg/kg [1] of 38%, an inhibition in vivo at 50 mg/kg [2] of 56.7% and an inhibition in vivo at 50 mg/kg [3] of 63.8%. It also gave an inhibition in vivo at 50 mg/kg [4] of 69.7%, an Activity [5] of 0.375 mL and an Activity [6] of 0.485 mL. For the same molecule, the Activity [7] was 0.495 mL and the Activity [8] was 0.485 mL.
Molecule `CCOc1nc2c(c(-c3ccc(OC)cc3)c1C#N)CCSc1ccccc1-2` has an inhibition in vivo at 50 mg/kg [1] of 62%, an inhibition in vivo at 50 mg/kg [2] of 79.5% and an inhibition in vivo at 50 mg/kg [3] of 90.6%. The inhibition in vivo at 50 mg/kg [4] was 87.5%, the Activity [9] was “Non-toxic” and the Activity [5] was 0.23 mL. The Activity [6] was 0.23 mL, the Activity [7] was 0.128 mL and the Activity [8] was 0.2 mL.
In the case of `COc1ccc(-c2c3c([nH]c(=S)c2C#N)-c2ccccc2SCC3)cc1`, the inhibition in vivo at 50 mg/kg [1] is reported as 54.5%, the inhibition in vivo at 50 mg/kg [2] is reported as 68.3% and the inhibition in vivo at 50 mg/kg [3] is reported as 63.5%. For the same molecule, the inhibition in vivo at 50 mg/kg [4] was 56.3%, the Activity [5] was 0.275 mL and the Activity [6] was 0.355 mL. It also gave an Activity [7] of 0.5 mL and an Activity [8] of 0.7 mL.
`C1CCNCC1.COc1ccc(-c2c(C#N)c(S)[nH]c(=S)c2C#N)cc1.O` was tested, and the inhibition in vivo at 50 mg/kg [1] was 9.4%, the inhibition in vivo at 50 mg/kg [2] was 47% and the inhibition in vivo at 50 mg/kg [3] was 57%. For the same molecule, the inhibition in vivo at 50 mg/kg [4] was 58.9%, the Activity [5] was 0.548 mL and the Activity [6] was 0.594 mL. For the same molecule, the Activity [7] was 0.588 mL and the Activity [8] was 0.658 mL.
`COc1nc2c(c(-c3cccs3)c1C#N)CCSc1ccccc1-2` was tested, and the inhibition in vivo at 50 mg/kg [1] was 55.4%, the inhibition in vivo at 50 mg/kg [2] was 60.1% and the inhibition in vivo at 50 mg/kg [3] was 56.1%. For the same molecule, the inhibition in vivo at 50 mg/kg [4] was 56.6%, the Activity [5] was 0.27 mL and the Activity [6] was 0.447 mL. The Activity [7] was 0.6 mL and the Activity [8] was 0.695 mL.
Molecule `COc1ccc2c(c1)c(CC(=O)O)c(C)n2C(=O)c1ccc(Cl)cc1` [INDOMETHACIN] has an inhibition in vivo at 5 mg/kg [10] of 71.1%, an inhibition in vivo at 5 mg/kg [11] of 82.6% and an inhibition in vivo at 5 mg/kg [12] of 66.4%. It also gave an inhibition in vivo at 5 mg/kg [13] of 82.6%, an Activity [14] of 0.175 mL and an Activity [15] of 0.195 mL. The Activity [16] was 0.46 mL and the Activity [17] was 0.278 mL.
